{"source": "paper PMC7582308", "about": "“Functional Characterization of a Dendrobium officinale Geraniol Synthase DoGES1 Involved in Floral Scent Formation” (International Journal of Molecular Sciences, 2020)", "molecular_target": "T1, DoGES1 (Dendrobium officinale, UniProt A0A7H9SVV5)", "T1 construct": "gene GES1", "T1 sequence (A0A7H9SVV5 1-582)": "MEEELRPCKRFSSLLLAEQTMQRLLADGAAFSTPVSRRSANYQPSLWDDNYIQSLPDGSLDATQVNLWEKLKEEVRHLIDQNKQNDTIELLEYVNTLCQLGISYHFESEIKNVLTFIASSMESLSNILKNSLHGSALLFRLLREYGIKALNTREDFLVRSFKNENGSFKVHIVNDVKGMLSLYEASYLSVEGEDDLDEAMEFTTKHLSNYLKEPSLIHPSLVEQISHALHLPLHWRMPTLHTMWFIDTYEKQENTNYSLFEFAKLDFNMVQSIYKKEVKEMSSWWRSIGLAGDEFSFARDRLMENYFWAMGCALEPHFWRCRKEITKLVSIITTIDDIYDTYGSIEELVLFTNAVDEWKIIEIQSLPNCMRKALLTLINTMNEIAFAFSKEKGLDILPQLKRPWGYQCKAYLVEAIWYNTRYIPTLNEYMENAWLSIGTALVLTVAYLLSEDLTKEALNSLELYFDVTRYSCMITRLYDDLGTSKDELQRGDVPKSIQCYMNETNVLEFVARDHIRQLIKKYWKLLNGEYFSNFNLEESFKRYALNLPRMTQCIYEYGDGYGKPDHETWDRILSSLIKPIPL", "test": "GC-MS detection of geraniol product", "assay_type": "biochemical", "details": "10 mM GPP, 10 mM MgCl2, 5 mM dithiothreitol, MOPSO pH 7.0, 30 °C, 1 h"}
{"molecule": "CC(C)=CCC/C(C)=C/COP(=O)(O)OP(=O)(O)O", "note": "[geranyl pyrophosphate]", "values": [{"measurement": "GC-MS detection of geraniol product", "result": "After incubation with GPP as substrate for the synthesis of monoterpenes, recombinant DoGES1 proteins successfully yielded geraniol"}]}
